Experimental data: paper PMC3840712, “Enzymatic properties of Thermoanaerobacterium thermosaccharolyticum β-glucosidase fused to Clostridium cellulovorans cellulose binding domain and its application in hydrolysis of microcrystalline cellulose” (BMC Biotechnology, 2013)
Blank lines part the entries; values can stand above or below the compound they belong to.

How the values were obtained:
BGL-CBD [1] = system: T1, BGL-CBD; assay: initial rates, pNP release at […] nm; type: biochemical, Thermoanaerobacterium thermosaccharolyticum; details: 50 mM citrate pH 6.0, 65°C
T1 construct: one polypeptide: BGL - PPP linker - C. cellulovorans CBD, pET-20b (NdeI/BamHI/XhoI; pET-BGL-Linker-CBD), Ni-NTA purified, E. coli JM109(DE3), about 69 kDa

BGL [2] = molecular target: T2, BGL (Thermoanaerobacterium thermosaccharolyticum, UniProt D9TR57); assay: initial rates, pNP release at […] nm; type: biochemical; details: 50 mM citrate pH 6.0, 65°C
T2 construct: gene Tthe_1813
T2 sequence (D9TR57 1-444): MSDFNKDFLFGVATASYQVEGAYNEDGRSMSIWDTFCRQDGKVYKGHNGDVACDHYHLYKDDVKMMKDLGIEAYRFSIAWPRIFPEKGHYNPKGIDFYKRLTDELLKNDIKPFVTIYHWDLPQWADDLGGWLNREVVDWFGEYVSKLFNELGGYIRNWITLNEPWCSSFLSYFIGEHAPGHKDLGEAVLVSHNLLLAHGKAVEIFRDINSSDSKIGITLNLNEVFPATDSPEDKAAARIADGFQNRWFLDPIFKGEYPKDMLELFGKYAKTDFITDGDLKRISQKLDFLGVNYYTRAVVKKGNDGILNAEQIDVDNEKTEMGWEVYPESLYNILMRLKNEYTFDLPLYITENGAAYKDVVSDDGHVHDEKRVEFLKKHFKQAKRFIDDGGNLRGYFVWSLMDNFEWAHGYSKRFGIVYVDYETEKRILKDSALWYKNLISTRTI

BGL-CBD [3] = system: T1, BGL-CBD; assay: initial rates, cellobiose hydrolysis; type: biochemical, Thermoanaerobacterium thermosaccharolyticum; details: 50 mM citrate pH 6.0, 65°C
Description: initial rates, cellobiose hydrolysis on BGL-CBD

BGL [4] = molecular target: T2, BGL; assay: initial rates, cellobiose hydrolysis; type: biochemical; details: 50 mM citrate pH 6.0, 65°C
BGL [5] = molecular target: T2, BGL; assay: pNP release at […] nm, […] inhibition; type: biochemical; details: pNPG as substrate, 50 mM citrate pH 6.0, 65°C; K i defined as glucose giving 50% inhibition

Km (BGL-CBD [1]): 250 µM
Km (BGL [2]): 620 µM
Structure (SMILES): O=[N+]([O-])c1ccc(O[C@@H]2O[C@H](CO)[C@@H](O)[C@H](O)[C@H]2O)cc1 [p-nitrophenyl-β-D-glucopyranoside]

Km (BGL-CBD [3]): 2620 µM
Km (BGL [4]): 7900 µM
Structure (SMILES): OC[C@H]1O[C@@H](O[C@H]2[C@H](O)[C@@H](O)C(O)O[C@@H]2CO)[C@H](O)[C@@H](O)[C@@H]1O (some centres unmarked) [cellobiose]

Structure (SMILES): OC[C@H]1OC(O)[C@H](O)[C@@H](O)[C@@H]1O (some centres unmarked) [glucose]
K i (BGL [5]): The BGL-CBD yielded approximately two times higher K i values for glucose than the BGL
